Experimental findings from ChEMBL document CHEMBL6120944, “SAR Analysis of Novel Coxsackie virus A9 Capsid Binders” (J Med Chem, 2024) are described below.

Data set [1] in a line: Distribution coefficient, log D of the compound by HPLC analysis. In kind it is physicochemical. Particulars: octanol/water.
A short description of data set [2]: Cytotoxicity against human A549 cells assessed as cell viability. Format: toxicity, cell-based.
Data set [3] can be described thus: Selectivity index, ratio of CC50 for cytotoxicity against human A549 cells assessed as cell viability to EC50 for antiviral activity against Coxsackievirus A9 infected in human A549 cells assessed as inhibition of virus-induced cytopathic effect. Format: toxicity, cell-based. Conditions: read-out: Ratio CC50/EC50. A general note: Protection from cytopathic effect is a common read-out in antiviral testing.

The nature of data set [4]: Kinetic solubility of compound by HPLC analysis. Format: physicochemical. Conditions: read-out: Kinetic_solubility.
The test system of data set [5] is Coxsackievirus A9. As to the kind of experiment: Antiviral activity against Coxsackievirus A9 infected in human A549 cells assessed as inhibition of virus-induced cytopathic effect pre-infected with virus for 1 hr followed by compound addition and measured after 24 hrs by crystal violet staining based analysis. Format: functional, organism-based. Conditions: Enterovirus B.

The test system of data set [6] is Coxsackievirus A9. As to the kind of experiment: Antiviral activity against Coxsackievirus A9 infected in human A549 cells assessed as increase in cell viability at 10 uM pre-infected with virus for 1 hr followed by compound addition and measured after 24 hrs by crystal violet staining based analysis. In kind it is functional, organism-based.
Data set [7] has as its system Coxsackievirus A9. Description: Antiviral activity against Coxsackievirus A9 infected in human A549 cells assessed as increase in cell viability at 100 uM pre-infected with virus for 1 hr followed by compound addition and measured after 24 hrs by crystal violet staining based analysis relative to control. Format: functional.
The test system of data set [8] is Coxsackievirus A9. Description: Antiviral activity against Coxsackievirus A9 infected in human A549 cells assessed as inhibition of virus-induced cytopathic effect at 5 uM pre-infected with virus for 1 hr followed by compound addition and measured after 24 hrs by crystal violet staining based analysis relative to control. In kind it is functional. On the set-up: scale not given: the % may be the effect or the level left.

Data set [9] in a line: Metabolic stability in CD-1 mouse liver microsome assessed as intrinsic clearance preincubated with compound for 10 mins followed by NADP addition and measured after 60 mins by LC-MS/MS analysis. In kind it is ADME. Particulars: liver microsomes, time 70 min, read-out: CLH. Background: Microsomes from liver hold many membrane-bound enzymes, among them those of drug oxidation.

Data set [10] in a line: Metabolic stability in human liver microsome assessed as intrinsic clearance preincubated with compound for 10 mins followed by NADP addition and measured after 60 mins by LC-MS/MS analysis. In kind it is ADME. Conditions: liver microsomes, time 70 min, read-out: CLH.
Data set [11] is described as follows: Metabolic stability in human liver microsome assessed as half life preincubated with compound for 10 mins followed by NADP addition and measured after 60 mins by LC-MS/MS analysis. In kind it is ADME. Conditions: liver microsomes, time 70 min.
Data set [12] deals with Coxsackievirus A9. As to the kind of experiment: Antiviral activity against Coxsackievirus A9 infected in human A549 cells assessed as increase in cell viability at 5 uM pre-infected with virus for 1 hr followed by compound addition and measured after 24 hrs by crystal violet staining based analysis relative to control. In kind it is functional.
The nature of data set [13]: Metabolic stability in CD-1 mouse liver microsome assessed as half life preincubated with compound for 10 mins followed by NADP addition and measured after 60 mins by LC-MS/MS analysis. Format: ADME. Conditions: liver microsomes, time 70 min.

Structures are written as SMILES. In brackets after ≈: the same amount, converted by molar mass. Activity calls are given as the source filed them. Where only a bound is given, the exact number is not on record here.

Broadly, the logD is the decadic logarithm of the distribution of all forms, ionised or not, between an organic phase and buffer at a given pH. The CC50 is the concentration that lowers cell viability or growth by half. In general, EC50 refers to the concentration needed to bring the measured effect to its halfway point. In the case of `CN1CCN(Cc2ccc(NC(=O)c3ccc(Cl)cc3)cc2)CC1`, in data set [1], the log distribution coefficient (logD) was found to be 2.27. Further, in data set [2], the CC50 is over 1000 µM. Besides, the selectivity ratio in [3] is over 125. The solubility kinetic in [4] was 220 µg/mL (≈ 640 µM). In the data set on Coxsackievirus A9 [5], the EC50 was determined as 7.98 µM.
`COc1ccc(CNc2ccc(CN3CCN(C)CC3)cc2)cc1` gave a log distribution coefficient (logD) in [1] of 1.81. The half-maximal cytotoxic concentration (CC50) in [2] turned out to be 376 µM. Besides, the outcome in the data set with Coxsackievirus A9 [6] was Active. The selectivity ratio in [3] is 36. Further, in [4], the solubility kinetic came out at 210 µg/mL (≈ 645 µM). For the same molecule, the concentration giving a half-maximal response (EC50) with Coxsackievirus A9 [5] was found to be 10.5 µM. The Activity with Coxsackievirus A9 [7] was determined as 60%.
In data set [1], `CN1CCN(Cc2ccc(NCc3ccc(F)cc3F)cc2)CC1` displayed a log distribution coefficient (logD) of 1.9. For the same molecule, in data set [2], the half-maximal cytotoxic concentration (CC50) came to 201 µM. Besides, the result with Coxsackievirus A9 [6] was Active. For the same molecule, the selectivity ratio in data set [3] was found to be 29.5. Further, the solubility kinetic in data set [4] came to 240 µg/mL (≈ 724 µM). In addition, the EC50 in the data set on Coxsackievirus A9 [5] came out at 6.8 µM. Further, the Activity in the data set with Coxsackievirus A9 [7] is about 70%.
One may read the half-life as the time needed for the level to fall by half in the phase considered. In turn, `CN1CCN(Cc2ccc(NCc3ccc(Cl)cc3)cc2)CC1` had a log distribution coefficient (logD) in data set [1] of 2.34. The Activity with Coxsackievirus A9 [8] is reported as 100%; with Coxsackievirus A9 [12], 90%. Moreover, the microsomal CLint worked out at 199 µL/min/mg in data set [9] and 66.4 µL/min/mg in [10]. In addition, the CC50 in data set [2] turned out to be 114 µM. The outcome with Coxsackievirus A9 [6] was Active. Moreover, in [3], the selectivity ratio is 90.1. Also, the solubility kinetic in data set [4] is 220 µg/mL (≈ 667 µM). Also, the EC50 in the data set with Coxsackievirus A9 [5] amounted to 1.27 µM. Further, the half-life was 20.9 min in data set [11] and 7 min in data set [13].
`CN1CCN(Cc2ccc(NCc3ccc(C(F)(F)F)cc3)cc2)CC1`: the figures for the microsomal CLint in data set [9] and in data set [10] were 108 µL/min/mg and 41.2 µL/min/mg, respectively. Also, the cytotoxic concentration (CC50) in data set [2] was 78.6 µM. Moreover, the outcome in the data set with Coxsackievirus A9 [6] was Active. In data set [3], the selectivity ratio is 74.1. Also, the solubility kinetic in data set [4] amounted to 210 µg/mL (≈ 578 µM). The EC50 with Coxsackievirus A9 [5] came out at 1.06 µM. For the same molecule, the half-life worked out at 33.7 min in data set [11] and 12.8 min in data set [13]. The Activity in the data set on Coxsackievirus A9 [7] was about 60%.
For the molecule `CN1CCN(Cc2ccc(NCc3ccccc3F)cc2)CC1`, the logD in data set [1] is 2.05. Moreover, the cytotoxic concentration (CC50) in [2] amounted to 351 µM. In the data set with Coxsackievirus A9 [6], the result was Active. For the same molecule, the selectivity ratio in data set [3] is 52.8. Besides, the solubility kinetic in [4] came out at 260 µg/mL (≈ 830 µM). Further, the EC50 with Coxsackievirus A9 [5] was determined as 6.66 µM. Moreover, in the data set on Coxsackievirus A9 [7], the Activity is reported as about 70%.
For the molecule `CN1CCN(Cc2ccc(NCc3ccc(-c4ccccc4)cc3)cc2)CC1`, the values for the Activity in the data set on Coxsackievirus A9 [8] and in the data set on Coxsackievirus A9 [12] were 100% and 60%, respectively. The CC50 in data set [2] is 15.8 µM. Also, in the data set with Coxsackievirus A9 [6], the result was Active. Besides, the selectivity ratio in data set [3] is 24.7. Moreover, the solubility kinetic in [4] worked out at 210 µg/mL (≈ 565 µM). The 50% effective concentration (EC50) with Coxsackievirus A9 [5] was 0.64 µM.
In the case of `COc1ccccc1CNc1ccc(CN2CCN(C)CC2)cc1`, the CC50 in [2] worked out at 360 µM. In addition, the outcome in the data set with Coxsackievirus A9 [6] was Active. Moreover, the selectivity ratio in data set [3] was found to be 45.9. Moreover, in the data set on Coxsackievirus A9 [5], the half-maximal effective concentration (EC50) was found to be 7.84 µM. Also, in the data set with Coxsackievirus A9 [7], the Activity was 40%.
Consider `CN1CCN(Cc2ccc(NCc3ccc(F)cc3)cc2)CC1`, for which, in data set [1], the pH-dependent lipophilicity (logD) is 1.94. The CC50 in data set [2] is 364 µM. Besides, the outcome in the data set on Coxsackievirus A9 [6] was Active. Moreover, in data set [3], the selectivity ratio was 155. The solubility kinetic in data set [4] worked out at 200 µg/mL (≈ 638 µM). Besides, the EC50 with Coxsackievirus A9 [5] amounted to 2.34 µM. The Activity with Coxsackievirus A9 [7] is about 70%.
On to `CN1CCN(Cc2ccc(NC(=O)c3ccc(-c4ccccc4)cc3)cc2)CC1`, for which, in data set [2], the CC50 was 144 µM. The selectivity ratio in [3] came out at 134. Further, the solubility kinetic in [4] is 260 µg/mL (≈ 674 µM). Further, the half-maximal effective concentration (EC50) in the data set with Coxsackievirus A9 [5] was 1.07 µM.
Regarding `CN1CCN(Cc2ccc(NCc3ccc(F)c(F)c3)cc2)CC1`, in data set [1], the log distribution coefficient (logD) was determined as 1.98. Moreover, the cytotoxic concentration (CC50) in data set [2] is 215 µM. Besides, the result in the data set on Coxsackievirus A9 [6] was Active. Further, the selectivity ratio in data set [3] is 52.2. The solubility kinetic in data set [4] turned out to be 220 µg/mL (≈ 664 µM). Also, the half-maximal effective concentration (EC50) in the data set on Coxsackievirus A9 [5] stood at 4.11 µM. Also, the Activity with Coxsackievirus A9 [7] was about 70%.
For `CN1CCN(Cc2ccc(NCc3cccc(F)c3)cc2)CC1`, the logD in data set [1] was 1.93. Besides, the CC50 in [2] is 222 µM. The outcome in the data set on Coxsackievirus A9 [6] was Active. Besides, the selectivity ratio in data set [3] is 38. In addition, the solubility kinetic in data set [4] was found to be 220 µg/mL (≈ 702 µM). Besides, the EC50 with Coxsackievirus A9 [5] came to 5.84 µM. The Activity in the data set with Coxsackievirus A9 [7] is given as about 70%.
